Data from patent US12433964B2, “Antiviral and antibacterial disinfection aero-solution using edible food dyes” (Purdue Research Foundation, priority 2020, dated 2025).

Assay: Lifetime (photobleaching) of photosensitizers by fluorescent emission monitoring
Type: physicochemical
Conditions: for complete photobleaching after (lifetime): 5 μM aqueous solution, green laser 532 nm 6.3 mW cm^−2 / white LED 2400 lux; for lasting time of singlet oxygen generation: estimated for standard illumination level of 500 lux
Procedure: To test the lifetime of photosensitizers, we monitored the fluorescent emission of Rose Bengal and Erythrosine, respectively. FIG. 10a is a graph of normalized intensity vs wavelength showing absorption and fluorescence for Rose Bengal and Erythrosine. 0.5-mL aqueous solutions of each photosensitizer were put into a cuvette and then the fluorescent spectrum was measured using a fiber bundle-coupled spectrometer (VS140 VIS-NIR; Horiba Jobin Yvon Inc., Edison, NJ, USA). […] Lifetime of Rose Bengal is longer than that of Erythrosine, showing complete photobleaching after 120 min (60 min for Erythrosine). Both are also activated by a white LED with 2400 lux. Considering that the standard illumination level of normal workstation spaces is 500 lux, the lasting time of singlet oxygen generation for Rose Bengal and Erythrosine can be estimated to be about 9.6 and 4.8 hours, respectively.

Compound	complete photobleaching after (lifetime)	lasting time of singlet oxygen generation
O=C([O-])c1c(Cl)c(Cl)c(Cl)c(Cl)c1-c1c2cc(I)c(=O)c(I)c-2oc2c(I)c([O-])c(I)cc12.[Na+].[Na+] [FD&C RED No. 105, Rose Bengal]	120 min	about 9.6 hours
Erythrosine [FD&C RED No. 3]	60 min	~4.8 h
